Results as given in patent publication US20260258084A1, “New Peptides as Selective IL-23 Receptor Antagonists” (Sanofi, priority 2022, published 2026).
Values after ≈ are worked out from the molar mass of the structure shown. Where two headings read alike, the source gives them in different places. Starred links: 1 amine or outer side, 2 acyl side, 3 side chain; linkers in the order of their positions; H or OH if unused. Positions of bridges follow the written chain, without caps; N, C: chain ends. Non-standard residues stand in square brackets, D forms with d. Residues, ends and D or L forms follow the SMILES beside them. *: point of attachment. X3 = CN(CCCCC(=O)N[C@@H](CS[*:2])C(=O)[*:1])[*:3]; Trp(7-Me) = Cc1cccc2c(C[C@H](N)C(=O)O)c[nH]c12; 2Nal = N[C@@H](Cc1ccc2ccccc2c1)C(=O)O; AEF = NCCOc1ccc(C[C@H](N)C(=O)O)cc1; 3Pal = N[C@@H](Cc1cccnc1)C(=O)O; αMeL = CC(C)C[C@](C)(N)C(=O)O; Thp = NC1(C(=O)O)CCOCC1; Me2NCH2CH2 = CN(C)CC*; Aib = CC(C)(N)C(=O)O; Ahx = NCCCCCC(=O)O; Ava = NCCCCC(=O)O; Sar = CNCC(=O)O

Experiment: Solubility testing of peptides at different pH
Type: physicochemical
Conditions: target concentration 1 mg/ml, 2 hours agitation
Summary of the method: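 Solid obtained by drying down DMSO stock was taken up at 1 mg/mL in 50 mM HCl pH 1.2 or 50 mM phosphate pH 6.5, 7.4 or 9.0, agitated gently for 2 h, then filtered (0.45 μm). Solubility by UPLC-UV peak area against a DMSO reference standard curve, corrected for extinction coefficients.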

[1] = 50 mM HCl buffer, 50 mM HCl pH 1.2, read-out: Solubility Buffer pH 1.2
[2] = 50 mM phosphate buffer pH 6.5, read-out: Solubility Buffer pH 6.5
[3] = 50 mM phosphate buffer pH 7.4, read-out: Solubility Buffer pH 7.4
[4] = 50 mM phosphate buffer pH 9.0, read-out: Solubility Buffer pH 9.0

Structure (SMILES)	solubility at 2 h [1] [µg/mL]	solubility at 2 h [2] [µg/mL]	solubility at 2 h [3] [µg/mL]	solubility at 2 h [4] [µg/mL]
CC(=O)N[C@H]1CCCCNC(=O)[C@@H]2CSSC[C@H](NC(=O)[C@H](CCC(N)=O)NC(=O)[C@H](Cc3c[nH]c4ccccc34)NC1=O)C(=O)N[C@@H](Cc1ccc(OCCN)cc1)C(=O)N[C@@H](Cc1ccc3ccccc3c1)C(=O)N[C@@](C)(CC(C)C)C(=O)N[C@H](C(=O)N[C@@H](CC(N)=O)C(=O)N[C@@H](CC(N)=O)C(N)=O)CCC(=O)N(C)CCCCC(=O)N2 [compound 14] (Ac-KWQC[AEF][2Nal][αMeL]ENN-NH2; linker 1-4-8 via X3)	50 (≈ 29.6 µM)	30 (≈ 17.8 µM)	20 (≈ 11.8 µM)	< 10
CC(=O)N[C@H]1CCCCNC(=O)[C@@H]2CSSC[C@H](NC(=O)[C@H](CCC(N)=O)NC(=O)[C@H](Cc3c[nH]c4ccccc34)NC1=O)C(=O)N[C@@H](Cc1ccc(OCCN)cc1)C(=O)N[C@@H](Cc1ccc3ccccc3c1)C(=O)NC(C)(C)C(=O)N[C@H](C(=O)N[C@@H](CC(N)=O)C(=O)N[C@@H](CC(N)=O)C(N)=O)CCC(=O)N(C)CCCCC(=O)N2 [compound 12] (Ac-KWQC[AEF][2Nal][Aib]ENN-NH2; linker 1-4-8 via X3)	310 (≈ 188 µM)	290 (≈ 176 µM)	190 (≈ 115 µM)	110 (≈ 66.8 µM)
CC(=O)N[C@H]1CCCCNC(=O)[C@@H]2CSSC[C@H](NC(=O)[C@H](CCC(N)=O)NC(=O)[C@H](Cc3c[nH]c4ccccc34)NC1=O)C(=O)N[C@@H](Cc1ccc(OCCN)cc1)C(=O)N[C@@H](Cc1ccc3ccccc3c1)C(=O)NC1(CCOCC1)C(=O)N[C@H](C(=O)N[C@@H](C)C(=O)NCC(N)=O)CCC(=O)N(C)CCCCC(=O)N2 [compound 17] (Ac-KWQC[AEF][2Nal][Thp]EAG-NH2; linker 1-4-8 via X3)	≥ 1030	≥ 1000	≥ 970	≥ 880
COc1ccc(C[C@@H]2NC(=O)[C@@H]3CSSC[C@H](NC(=O)CCC(=O)NCCCC[C@@H](C(=O)N[C@@H](CC(N)=O)C(=O)N[C@@H](CC(N)=O)C(N)=O)NC(=O)C(C)(C)NC(=O)[C@H](Cc4ccc5ccccc5c4)NC2=O)C(=O)N[C@@H](CC(N)=O)C(=O)N[C@@H]([C@@H](C)O)C(=O)N[C@@H](Cc2c[nH]c4ccccc24)C(=O)N[C@@H](CCC(N)=O)C(=O)N3)cc1 [compound 11]	120 (≈ 72.8 µM)	100 (≈ 60.6 µM)	90 (≈ 54.6 µM)	80 (≈ 48.5 µM)
CC(=O)NCCCC[C@@H]1NC(=O)[C@H](Cc2c[nH]c3c(C)cccc23)NC(=O)[C@H]([C@@H](C)O)NC(=O)[C@H](CC(N)=O)NC(=O)[C@@H]2CSSC[C@H](NC1=O)C(=O)N[C@@H](Cc1ccc(OCCN(C)C)cc1)C(=O)N[C@@H](Cc1ccc3ccccc3c1)C(=O)N[C@@](C)(CC(C)C)C(=O)N[C@H](C(=O)N[C@@H](CC(N)=O)C(=O)N[C@@H](Cc1c[nH]cn1)C(=O)N(C)CC(N)=O)CCC(=O)NCCCCC(=O)N2 [compound 47] ([Ava]CNT[Trp(7-Me)]K(Ac)CY(Me2NCH2CH2)[2Nal][αMeL]ENH[Sar]-NH2; disulfide 2-7; lactam N-11)	≥ 1000	≥ 950	540 (≈ 284 µM)	110 (≈ 57.9 µM)
C[C@@H](O)[C@@H]1NC(=O)[C@H](CC(N)=O)NC(=O)[C@@H]2CSSC[C@H](NC(=O)[C@H](CCC(N)=O)NC(=O)[C@H](Cc3c[nH]c4ccccc34)NC1=O)C(=O)N[C@@H](Cc1ccc(OCCN)cc1)C(=O)N[C@@H](Cc1ccc3ccccc3c1)C(=O)NC(C)(C)C(=O)N[C@H](C(=O)N[C@@H](CC(N)=O)C(=O)NCC(N)=O)CC(=O)NCCCCCC(=O)N2 [compound 9] ([Ahx]CNTWQC[AEF][2Nal][Aib]DNG-NH2; disulfide 2-7; lactam N-11)	≥ 1040	≥ 1060	≥ 960	750 (≈ 463 µM)
COc1ccc(C[C@@H]2NC(=O)[C@@H]3CSSC[C@H](NC(=O)CCCCNC(=O)CC[C@@H](C(=O)N[C@@H](CC(N)=O)C(=O)NCC(N)=O)NC(=O)C(C)(C)NC(=O)[C@H](Cc4ccc5ccccc5c4)NC2=O)C(=O)N[C@@H](CC(N)=O)C(=O)N[C@@H]([C@@H](C)O)C(=O)N[C@@H](Cc2c[nH]c4ccccc24)C(=O)N[C@@H](CCC(N)=O)C(=O)N3)cc1 [compound 4] ([Ava]CNTWQCY(Me)[2Nal][Aib]ENG-NH2; disulfide 2-7; lactam N-11)	30 (≈ 18.8 µM)	20 (≈ 12.6 µM)	20 (≈ 12.6 µM)	10 (≈ 6.28 µM)
Cc1cccc2c(C[C@@H]3NC(=O)[C@H]([C@@H](C)O)NC(=O)[C@H](CC(N)=O)NC(=O)[C@@H]4CSSC[C@H](NC(=O)[C@H](CC(C)C)NC3=O)C(=O)N[C@@H](Cc3ccc(OCCN(C)C)cc3)C(=O)N[C@@H](Cc3ccc5ccccc5c3)C(=O)NC3(CCOCC3)C(=O)N[C@H](C(=O)N[C@@H](CC(N)=O)C(=O)N[C@@H](Cc3cccnc3)C(=O)N(C)CC(N)=O)CCC(=O)NCCCCC(=O)N4)c[nH]c12 [compound 24] ([Ava]CNT[Trp(7-Me)]LCY(Me2NCH2CH2)[2Nal][Thp]EN[3Pal][Sar]-NH2; disulfide 2-7; lactam N-11)	≥ 1020	≥ 1100	≥ 1000	300 (≈ 162 µM)
CC(C)C[C@@H](NC(=O)[C@H](CC(N)=O)NC(=O)[C@@H]1CCC(=O)NCCCCC(=O)N[C@H]2CSSC[C@H](NC(=O)[C@H](CCC(N)=O)NC(=O)[C@H](Cc3c[nH]c4ccccc34)NC(=O)[C@H]([C@@H](C)O)NC(=O)[C@H](CC(N)=O)NC2=O)C(=O)N[C@@H](Cc2ccc(OCCN(C)C)cc2)C(=O)N[C@@H](Cc2ccc3ccccc3c2)C(=O)N[C@@](C)(CC(C)C)C(=O)N1)C(N)=O [compound 10] ([Ava]CNTWQCY(Me2NCH2CH2)[2Nal][αMeL]EN[dL]-NH2; disulfide 2-7; lactam N-11)	< 10	70 (≈ 40.1 µM)	10 (≈ 5.72 µM)	< 10
CC(=O)N[C@H]1CCCCNC(=O)[C@@H]2CSSC[C@H](NC(=O)[C@H](CCC(N)=O)NC(=O)[C@H](Cc3c[nH]c4ccccc34)NC1=O)C(=O)N[C@@H](Cc1ccc(OCCN)cc1)C(=O)N[C@@H](Cc1ccc3ccccc3c1)C(=O)NC(C)(C)C(=O)N[C@H](C(=O)N[C@@H](CC(N)=O)C(=O)NCC(N)=O)CCC(=O)N(C)CCCCC(=O)N2 [compound 15] (Ac-KWQC[AEF][2Nal][Aib]ENG-NH2; linker 1-4-8 via X3)	≥ 970	≥ 960	≥ 910	670 (≈ 421 µM)
CC(=O)N[C@H]1CCCCNC(=O)[C@@H]2CSSC[C@H](NC(=O)[C@H](CCC(N)=O)NC(=O)[C@H](Cc3c[nH]c4ccccc34)NC1=O)C(=O)N[C@@H](Cc1ccc(OCCN)cc1)C(=O)N[C@@H](Cc1ccc3ccccc3c1)C(=O)N[C@@](C)(CC(C)C)C(=O)N[C@H](C(=O)N[C@@H](C)C(=O)NCC(N)=O)CCC(=O)N(C)CCCCC(=O)N2 [compound 18] (Ac-KWQC[AEF][2Nal][αMeL]EAG-NH2; linker 1-4-8 via X3)	10 (≈ 6.29 µM)	< 10	< 10	< 10
